Assay results: patent US9662372B2 (priority 2013, dated 2017)
Where no end group is shown, it is not given here. [ ]: non-standard residue; d: D form. βAla = NCCC(=O)O

Legend:
C. difficile ATCC 9689 [1] = assay: Bacterial mass in wells of PM panels (OD 750 nm); assay type: cell-based, Clostridium difficile; settings: OD difference with vs without C. difficile, 72 h; nitrogen source (PM03/06/07/08)
C. difficile ATCC 9689 [2] = assay type: cell-based, Clostridium difficile
[3] = target: T1, Clostridium difficile Toxin B (Clostridioides difficile, UniProt P18177); assay: Toxin B inactivation, CHO-k1 microwell dye reduction assay; assay type: cell-based; settings: for Reduction of measured toxin B: at all tested concentrations, toxin B at high level
T1 construct: purchased List Biological Laboratory (Listlab, Campbell, Calif., USA)

[4] = target: Clostridium difficile Toxin B (Clostridium difficile) (UniProt P18177)
[5] = test system: crude toxin preparation from C. sordellii; assay type: cell-based
Shiga toxin 1 = Shiga toxin 1 (UniProt P08026+P69178)
[6] = test system: crude toxin preparation from B. cerus; assay type: cell-based, Bacillus cereus
[7] = test system: crude toxin preparation from E. coli O157; assay type: cell-based, Escherichia coli O157
[8] = test system: crude toxin preparation from C. perfringens; assay type: cell-based
Shiga toxin 2 = Shiga toxin 2 (Escherichia phage 933W, UniProt P09385+P09386)
[9] = at the lowest concentration of 0.03 μM, toxin B 1.2-100 ng/ml

T1 sequence (P18177 whole entry): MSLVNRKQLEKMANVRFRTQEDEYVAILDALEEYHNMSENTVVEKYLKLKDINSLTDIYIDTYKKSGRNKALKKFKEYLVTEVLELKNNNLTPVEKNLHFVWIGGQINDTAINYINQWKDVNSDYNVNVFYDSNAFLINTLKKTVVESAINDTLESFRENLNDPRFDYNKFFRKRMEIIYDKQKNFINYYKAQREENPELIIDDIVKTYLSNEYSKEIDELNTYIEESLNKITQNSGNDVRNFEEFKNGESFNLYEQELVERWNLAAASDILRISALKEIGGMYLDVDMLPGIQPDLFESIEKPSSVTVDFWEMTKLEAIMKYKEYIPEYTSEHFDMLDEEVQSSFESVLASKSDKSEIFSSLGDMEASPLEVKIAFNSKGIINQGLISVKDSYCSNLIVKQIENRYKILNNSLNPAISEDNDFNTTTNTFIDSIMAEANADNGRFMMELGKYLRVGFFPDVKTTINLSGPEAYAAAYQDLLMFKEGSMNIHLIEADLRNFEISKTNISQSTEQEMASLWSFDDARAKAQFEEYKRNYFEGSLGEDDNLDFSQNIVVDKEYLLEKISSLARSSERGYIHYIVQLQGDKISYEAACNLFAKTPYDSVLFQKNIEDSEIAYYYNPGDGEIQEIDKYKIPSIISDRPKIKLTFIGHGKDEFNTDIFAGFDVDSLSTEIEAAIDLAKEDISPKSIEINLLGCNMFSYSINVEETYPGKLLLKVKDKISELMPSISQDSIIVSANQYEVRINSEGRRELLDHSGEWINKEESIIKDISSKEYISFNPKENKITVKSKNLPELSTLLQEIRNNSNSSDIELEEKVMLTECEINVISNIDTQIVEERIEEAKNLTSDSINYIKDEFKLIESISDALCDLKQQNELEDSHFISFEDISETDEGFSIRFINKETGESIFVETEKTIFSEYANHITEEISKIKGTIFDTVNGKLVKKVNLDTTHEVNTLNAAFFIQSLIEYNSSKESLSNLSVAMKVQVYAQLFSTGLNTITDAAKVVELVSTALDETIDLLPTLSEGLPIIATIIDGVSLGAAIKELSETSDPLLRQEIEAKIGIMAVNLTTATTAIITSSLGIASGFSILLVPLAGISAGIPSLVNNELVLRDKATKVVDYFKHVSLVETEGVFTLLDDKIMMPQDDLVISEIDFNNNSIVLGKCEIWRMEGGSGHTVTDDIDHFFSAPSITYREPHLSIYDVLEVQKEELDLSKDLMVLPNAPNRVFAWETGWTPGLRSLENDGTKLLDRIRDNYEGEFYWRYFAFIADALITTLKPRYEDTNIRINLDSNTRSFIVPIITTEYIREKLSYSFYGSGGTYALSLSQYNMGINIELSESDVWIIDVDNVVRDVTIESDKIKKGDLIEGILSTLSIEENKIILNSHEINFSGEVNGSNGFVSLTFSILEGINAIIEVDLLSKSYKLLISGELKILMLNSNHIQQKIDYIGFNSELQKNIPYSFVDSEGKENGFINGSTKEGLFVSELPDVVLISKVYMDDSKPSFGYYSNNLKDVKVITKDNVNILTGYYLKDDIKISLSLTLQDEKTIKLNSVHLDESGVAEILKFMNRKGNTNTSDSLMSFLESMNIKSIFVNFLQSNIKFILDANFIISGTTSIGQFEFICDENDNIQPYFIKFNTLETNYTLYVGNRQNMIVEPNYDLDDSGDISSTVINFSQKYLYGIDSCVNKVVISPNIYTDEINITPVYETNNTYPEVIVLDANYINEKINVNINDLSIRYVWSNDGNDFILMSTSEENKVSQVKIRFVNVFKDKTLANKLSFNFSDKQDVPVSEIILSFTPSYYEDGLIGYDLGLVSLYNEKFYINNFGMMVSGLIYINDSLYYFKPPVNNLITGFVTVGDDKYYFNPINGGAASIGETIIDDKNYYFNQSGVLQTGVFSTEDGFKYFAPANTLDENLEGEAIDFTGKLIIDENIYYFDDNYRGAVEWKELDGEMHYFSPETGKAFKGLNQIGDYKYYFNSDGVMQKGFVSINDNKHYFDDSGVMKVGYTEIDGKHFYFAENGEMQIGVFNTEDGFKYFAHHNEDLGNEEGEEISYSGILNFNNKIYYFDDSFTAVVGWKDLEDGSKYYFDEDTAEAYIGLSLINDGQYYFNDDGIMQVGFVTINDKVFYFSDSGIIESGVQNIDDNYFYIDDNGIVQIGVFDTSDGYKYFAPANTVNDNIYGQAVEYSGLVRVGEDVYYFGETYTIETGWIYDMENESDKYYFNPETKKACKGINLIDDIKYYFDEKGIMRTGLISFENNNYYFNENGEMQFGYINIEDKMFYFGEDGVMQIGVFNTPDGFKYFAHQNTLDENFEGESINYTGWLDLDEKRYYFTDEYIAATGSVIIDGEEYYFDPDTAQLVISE
Chain of Shiga toxin 2 (P09385 23-319 limits assumed): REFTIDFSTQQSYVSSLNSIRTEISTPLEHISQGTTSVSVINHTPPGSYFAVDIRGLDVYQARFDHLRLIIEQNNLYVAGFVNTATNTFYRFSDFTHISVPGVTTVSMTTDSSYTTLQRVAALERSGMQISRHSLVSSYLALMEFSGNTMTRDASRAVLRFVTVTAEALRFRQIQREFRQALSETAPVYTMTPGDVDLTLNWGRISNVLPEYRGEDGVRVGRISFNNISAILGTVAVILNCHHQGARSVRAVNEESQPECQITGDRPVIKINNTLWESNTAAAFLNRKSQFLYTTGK
Chain of Shiga toxin 2 (P09386 20-89 limits assumed): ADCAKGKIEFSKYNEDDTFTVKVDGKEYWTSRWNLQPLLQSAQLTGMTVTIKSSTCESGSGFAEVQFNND
Chain of Shiga toxin 1 (P08026 23-315 limits assumed): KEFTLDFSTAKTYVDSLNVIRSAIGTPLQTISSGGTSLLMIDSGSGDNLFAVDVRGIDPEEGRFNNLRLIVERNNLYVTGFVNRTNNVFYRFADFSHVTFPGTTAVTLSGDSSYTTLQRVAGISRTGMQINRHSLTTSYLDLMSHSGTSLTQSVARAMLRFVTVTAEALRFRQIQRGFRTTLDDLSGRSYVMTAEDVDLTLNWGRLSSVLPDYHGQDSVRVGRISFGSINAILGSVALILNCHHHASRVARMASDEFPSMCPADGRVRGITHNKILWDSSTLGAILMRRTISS
Chain of Shiga toxin 1 (P69178 21-89 limits assumed): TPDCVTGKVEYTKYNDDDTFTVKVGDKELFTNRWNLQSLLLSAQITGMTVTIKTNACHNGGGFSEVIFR

| Substance | C. difficile Mass (C. difficile ATCC 9689 [1]) | Toxin (C. difficile ATCC 9689 [2]) | further results |
| --- | --- | --- | --- |
| Leu-Asn | 0.0482 OD (750 nm) | 381 ng/mL | – |
| Leu-Ser | 0.037 OD (750 nm) | 116 ng/mL | – |
| Leu-Trp | 0.0380 OD (750 nm) | <0.122 ng/mL | Effect on toxin production (in words) (C. difficile ATCC 9689 [2]): toxin production inhibitor |
| Lys-Arg | 0.0502 OD (750 nm) | 5536 ng/mL | – |
| Lys-Asp | 0.0525 OD (750 nm) | 335 ng/mL | – |
| Lys-Glu | 0.0425 OD (750 nm) | 271 ng/mL | – |
| Lys-Gly | 0.047 OD (750 nm) | 1950 ng/mL | – |
| Lys-Lys | 0.0427 OD (750 nm) | 150 ng/mL | – |
| Lys-Phe | 0.0533 OD (750 nm) | <0.122 ng/mL | – |
| Lys-Ser | 0.0426 OD (750 nm) | 5105 ng/mL | – |
| Lys-Trp | 0.006 OD (750 nm) | 5277 ng/mL | – |
| Pro-Arg | 0.0442 OD (750 nm) | 2967 ng/mL | – |
| Pro-Hyp | 0.045 OD (750 nm) | 7523 ng/mL | – |
| Ser-Leu | 0.0404 OD (750 nm) | 187 ng/mL | – |
| Ser-Pro | 0.0472 OD (750 nm) | 7136 ng/mL | – |
| Thr-Gln | 0.0403 OD (750 nm) | <0.122 ng/mL | – |
| Thr-Pro | 0.0355 OD (750 nm) | 4772 ng/mL | – |
| Trp-Ala | 0.0489 OD (750 nm) | 415 ng/mL | – |
| Trp-Arg | 0.0628 OD (750 nm) | 6468 ng/mL | – |
| Trp-Trp | 0.055 OD (750 nm) | 4104 ng/mL | – |
| Trp-Tyr | 0.0451 OD (750 nm) | 134 ng/mL | – |

| Substance | C. difficile Mass (C. difficile ATCC 9689 [1]) | Toxin (C. difficile ATCC 9689 [2]) | further results |
| --- | --- | --- | --- |
| Trp-Val | 0.0276 OD (750 nm) | 184 ng/mL | – |
| Tyr-Ala | 0.0331 OD (750 nm) | 186 ng/mL | – |
| Tyr-Phe | 0.0559 OD (750 nm) | <0.122 ng/mL | – |
| Tyr-Tyr | 0.0415 OD (750 nm) | 174 ng/mL | – |
| Val-Asp | 0.0469 OD (750 nm) | 225 ng/mL | – |
| Val-Glu | 0.0481 OD (750 nm) | 178 ng/mL | – |
| Val-Pro | 0.0425 OD (750 nm) | 183 ng/mL | – |
| Val-Ser | 0.0455 OD (750 nm) | <0.122 ng/mL | – |
| Val-Tyr-Val | 0.0382 OD (750 nm) | 296 ng/mL | – |
| [dA]-Gly-Gly | 0.0538 OD (750 nm) | 515 ng/mL | – |
| [βAla]-Gly | 0.0389 OD (750 nm) | 1547 ng/mL | – |
| [βAla]-His | 0.0473 OD (750 nm) | 8265 ng/mL | – |
| poly-D-lysine | – | – | Toxin B inactivation ([3]; 50 ng/ml C. difficile Toxin B): effectively inactivates |
| poly-D-lysine (peptide) | – | – | concentration at which significant toxin inactivation begins [4]: 1 µg/mL |
| poly-L-lysine | – | – | Toxin B inactivation ([3]; 50 ng/ml C. difficile Toxin B): effectively inactivates |
| poly-L-lysine (peptide) | – | – | concentration at which significant toxin inactivation begins [4]: 1 µg/mL |
| polyarginine | – | – | Reduction of measured toxin B [3]: dramatically reduce; Toxin B inactivation [3, 9]: completely inactivated |
| polylysine | – | – | Concentration at which significant toxin inactivation begins ([3]; 50 ng/ml C. difficile Toxin B, dose response 0.042-42.5 ug/ml): approximately 1 ug/ml |
| protamine | – | – | Toxin inactivation [5]: did not inactivate; Toxin inactivation (Shiga toxin 1): did not inactivate; Toxin inactivation [6]: did not inactivate; Toxin inactivation [7]: did not inactivate; Toxin inactivation [8]: did not inactivate; Reduction of measured toxin B [3]: dramatically reduce; Toxin B inactivation [3, 9]: completely inactivated; Optimal concentration against toxin B ([3]; double dilution experiment, FIG. 4): 0.26 µM; Toxin inactivation (Shiga toxin 2): did not inactivate |
| γ-D-Glu-Gly | 0.0519 OD (750 nm) | 10122 ng/mL | – |
